Measurements as given in the supplement of paper PMC10307832.

Key:
Assay in all cases: relative viability (nuclei count vs DMSO), 5 days (fraction); higher = more cells survive
XMD13-2 + Navitoclax = compound: C1CC1C(=O)NC2=NNC3=C2C=CC(=C3)C4=CC(=CC=C4)C(=O)NC5CC5 [XMD13-2] + CC1(C)CCC(c2ccc(Cl)cc2)=C(CN2CCN(c3ccc(C(=O)NS(=O)(=O)c4ccc(N[C@H](CCN5CCOCC5)CSc5ccccc5)c(S(=O)(=O)C(F)(F)F)c4)cc3)CC2)C1 [Navitoclax] (partner 0.5 µM)
Procedure, shortened: (§1)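 Lung cancer cell lines were seeded in 1536-well plates and dosed by pin tool the next day, with either a single drug or a fixed anchor-drug dose combined with five library-drug doses (not always all listed) spaced in √10 steps. Five days later, one step fixed the cells and stained their nuclei (final 0.05% Triton X-100, 1% formaldehyde, 1 ug/ml Hoechst), and nuclei were counted on 4× images. Relative viability is the nuclei count in treated wells divided by the count in vehicle wells, and each value is the median of duplicate plates.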

XMD13-2 + Bortezomib = compound: C1CC1C(=O)NC2=NNC3=C2C=CC(=C3)C4=CC(=CC=C4)C(=O)NC5CC5 [XMD13-2] + CC(C)C[C@H](NC(=O)[C@H](Cc1ccccc1)NC(=O)c1cnccn1)B(O)O [Bortezomib] (partner 0.002 µM)
Procedure, shortened: as §1

ALW-II-49-7 + Tozasertib = compound: Cc1ccc(C(=O)Nc2cccc(C(F)(F)F)c2)cc1Nc1cncc(C(N)=O)c1 [ALW-II-49-7] + Cc1cc(Nc2cc(N3CCN(C)CC3)nc(Sc3ccc(NC(=O)C4CC4)cc3)n2)n[nH]1 [Tozasertib] (partner 0.1 µM)
Procedure, shortened: as §1

Dasatinib + Lapatinib = compound: Cc1nc(Nc2ncc(C(=O)Nc3c(C)cccc3Cl)s2)cc(N2CCN(CCO)CC2)n1 [Dasatinib] + CS(=O)(=O)CCNCc1ccc(-c2ccc3ncnc(Nc4ccc(OCc5cccc(F)c5)c(Cl)c4)c3c2)o1 [Lapatinib] (partner 2 µM)
Procedure, shortened: as §1

Cell Line | relative viability (XMD13-2 + Navitoclax; first compound 0.05 µM) | relative viability (XMD13-2 + Navitoclax; first compound 0.1581 µM) | relative viability (XMD13-2 + Navitoclax; first compound 0.5 µM) | relative viability (XMD13-2 + Navitoclax; first compound 1.581 µM) | relative viability (XMD13-2 + Navitoclax; first compound 5 µM) | relative viability (XMD13-2 + Bortezomib; first compound 0.05 µM) | relative viability (XMD13-2 + Bortezomib; first compound 0.1581 µM) | relative viability (XMD13-2 + Bortezomib; first compound 0.5 µM) | relative viability (XMD13-2 + Bortezomib; first compound 1.581 µM) | relative viability (XMD13-2 + Bortezomib; first compound 5 µM) | relative viability (ALW-II-49-7 + Tozasertib; first compound 0.08 µM) | relative viability (ALW-II-49-7 + Tozasertib; first compound 0.253 µM) | relative viability (ALW-II-49-7 + Tozasertib; first compound 0.8 µM) | relative viability (ALW-II-49-7 + Tozasertib; first compound 2.53 µM) | relative viability (ALW-II-49-7 + Tozasertib; first compound 8 µM) | relative viability (Dasatinib + Lapatinib; first compound 0.005 µM) | relative viability (Dasatinib + Lapatinib; first compound 0.01581 µM) | relative viability (Dasatinib + Lapatinib; first compound 0.05 µM) | relative viability (Dasatinib + Lapatinib; first compound 0.1581 µM) | relative viability (Dasatinib + Lapatinib; first compound 0.5 µM)
COR-L23 | 1.03 | 1.07 | 1.18 | 1.11 | 0.899 | 1.12 | 0.994 | 1.04 | 1.08 | 1.09 | 0.206 | 0.193 | 0.17 | 0.15 | 0.15 | 0.983 | 0.853 | 0.955 | 0.74 | 0.737
RERF-LC-KJ | 1.14 | 1.03 | 0.674 | 1 | 0.733 | 1.08 | 1.05 | 1.2 | 0.97 | 1.14 | 0.442 | 0.524 | 0.461 | 0.506 | 0.321 | 0.819 | 0.758 | 0.84 | 0.813 | 0.809
NCI-H1755 | 1.03 | 0.985 | 1.07 | 1.01 | 0.986 | 0.992 | 1.02 | 0.984 | 0.934 | 1.03 | 0.654 | 0.558 | 0.463 | 0.483 | 0.466 | 0.957 | 0.714 | 0.749 | 0.622 | 0.246
PC-14 | 0.972 | 1.1 | 0.999 | 0.973 | 1 | 0.903 | 0.888 | 0.828 | 0.806 | 0.916 | 0.584 | 0.657 | 0.503 | 0.288 | 0.492 | 0.29 | 0.282 | 0.242 | 0.208 | 0.0848
NCI-H322M | 1.19 | 1.19 | 1.44 | 1.15 | 1.14 | 1.34 | 1.29 | 1.3 | 1.28 | 1.54 | 0.436 | 0.484 | 0.476 | 0.411 | 0.367 | 0.582 | 0.345 | 0.373 | 0.246 | 0.189
NCI-H1666 | 0.886 | 1.03 | 0.881 | 0.905 | 0.92 | 0.893 | 0.838 | 1.02 | 0.763 | 0.468 | 0.609 | 0.603 | 0.569 | 0.612 | 0.498 | 0.582 | 0.482 | 0.522 | 0.447 | 0.224
A-427 | 1.01 | 0.961 | 1.09 | 0.87 | 0.989 | 0.993 | 1.06 | 0.993 | 0.858 | 0.857 | 0.18 | 0.204 | 0.21 | 0.177 | 0.204 | 0.89 | 1.06 | 0.893 | 0.646 | 0.551
NCI-H1651 | 1.28 | 1.04 | 1 | 1.2 | 0.947 | 1.02 | 0.914 | 0.946 | 0.92 | 0.965 | 0.608 | 0.852 | 0.543 | 0.566 | 0.377 | 0.864 | 0.573 | 0.648 | 0.625 | 0.489
NCI-H520 | 1.17 | 1.2 | 1.08 | 1.01 | 0.501 | 0.978 | 0.802 | 0.66 | 0.329 | 0.365 | 0.504 | 0.463 | 0.482 | 0.31 | 0.328 | 0.729 | 0.447 | 0.464 | 0.228 | 0.21
201T | 1.22 | 1.25 | 1.2 | 1.19 | 1.29 | 1.12 | 1.12 | 1.16 | 1.15 | 1.18 | 0.886 | 0.948 | 0.941 | 0.902 | 0.92 | 0.931 | 0.81 | 0.924 | 0.875 | 0.486
NCI-H460 | 1.34 | 1.23 | 1.28 | 1.02 | 1.2 | 1.38 | 1.09 | 1.15 | 1.18 | 1.34 | 0.354 | 0.597 | 0.421 | 0.273 | 0.0328 | 1.06 | 0.598 | 0.743 | 0.482 | 0.376
NCI-H596 | 0.99 | 0.975 | 0.917 | 0.898 | 1.15 | 1.1 | 0.881 | 1.34 | 1.11 | 1.2 | 1.02 | 0.939 | 0.92 | 0.782 | 1.14 | 1.03 | 0.809 | 0.714 | 0.586 | 0.423
HARA | 1.1 | 1.08 | 1.16 | 1.13 | 1.14 | 1.31 | 1.11 | 0.671 | 1.17 | 1.17 | 0.0918 | 0.121 | 0.114 | 0.0912 | 0.0839 | 0.851 | 0.701 | 0.505 | 0.201 | 0.137
NCI-H2126 | 0.909 | 0.867 | 0.831 | 0.813 | 0.845 | 1.16 | 1.09 | 1.18 | 1.05 | 1.13 | 0.856 | 0.885 | 0.826 | 0.197 | 0.786 | 0.748 | 0.584 | 0.669 | 0.525 | 0.328
HCC-827 | 0.962 | 1.02 | 1 | 0.978 | 0.898 | 1.05 | 1.02 | 1.04 | 0.957 | 1.04 | 0.427 | 0.449 | 0.4 | 0.397 | 0.415 | 0.173 | 0.18 | 0.139 | 0.16 | 0.131
